Measurements: patent publication US4496584A, “Amidine derivatives with anti-complement activity” (Torii & Co. Ltd., priority 1981, dated 1985)
Read-outs that look alike come from different tables or passages of the source.

Assays:
trypsin = biological target: T1, trypsin (Bos taurus, UniProt P00760); experiment: Enzyme inhibition, TAME hydrolysis, trypsin (method of Muramatsu et al.); assay type: biochemical; conditions: hydrolysis of TAME; read-out: ID50, trypsin
T1 sequence (P00760 24-246): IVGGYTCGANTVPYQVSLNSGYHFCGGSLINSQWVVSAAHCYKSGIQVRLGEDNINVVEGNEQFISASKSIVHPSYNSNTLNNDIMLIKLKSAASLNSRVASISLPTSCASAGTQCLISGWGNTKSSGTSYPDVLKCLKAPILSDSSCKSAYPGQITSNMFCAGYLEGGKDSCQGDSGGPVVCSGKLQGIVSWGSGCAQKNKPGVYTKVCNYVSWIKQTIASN
Description: (§1) The enzyme inhibitory activity was determined according to the method of Muramatsu et al. [M. Muramatsu, T. Onishi, S. Makino, Y. Hayashi and S. Fujii, J. Biochem., 58, 214 (1965)]. The data summarized in Table 1 are expressed in terms of molar concentration (ID50) of the test compound which inhibits 50% of the activity of each enzyme to hydrolyze TAME (tosylarginine methyl ester).

plasmin = plasmin (Homo sapiens, UniProt P00747); experiment: Enzyme inhibition, TAME hydrolysis, plasmin (method of Muramatsu et al.); assay type: biochemical; conditions: read-out: ID50, plasmin
Chain of plasmin (P00747 581-810 limits assumed): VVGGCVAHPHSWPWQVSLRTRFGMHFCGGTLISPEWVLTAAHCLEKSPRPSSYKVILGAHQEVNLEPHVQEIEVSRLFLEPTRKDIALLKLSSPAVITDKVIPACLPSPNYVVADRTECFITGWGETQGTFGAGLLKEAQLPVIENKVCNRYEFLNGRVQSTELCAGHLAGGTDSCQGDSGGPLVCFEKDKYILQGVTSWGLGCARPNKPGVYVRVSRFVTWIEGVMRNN
Chain of plasmin (P00747 97-580 partner limits assumed): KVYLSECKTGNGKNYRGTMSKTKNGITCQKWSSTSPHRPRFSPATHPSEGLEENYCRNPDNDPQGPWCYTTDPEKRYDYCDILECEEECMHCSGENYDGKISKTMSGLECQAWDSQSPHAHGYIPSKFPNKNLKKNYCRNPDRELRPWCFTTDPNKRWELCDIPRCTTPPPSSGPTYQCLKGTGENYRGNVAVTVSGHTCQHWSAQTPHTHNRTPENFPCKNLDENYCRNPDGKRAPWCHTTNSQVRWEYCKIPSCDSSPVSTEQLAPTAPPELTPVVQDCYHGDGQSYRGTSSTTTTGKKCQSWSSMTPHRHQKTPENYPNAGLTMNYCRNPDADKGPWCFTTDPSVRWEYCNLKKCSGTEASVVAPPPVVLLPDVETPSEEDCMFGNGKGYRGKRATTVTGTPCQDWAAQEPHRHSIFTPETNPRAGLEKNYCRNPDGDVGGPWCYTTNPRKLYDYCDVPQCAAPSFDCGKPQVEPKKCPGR
Description: as §1

kallikrein = experiment: Enzyme inhibition, TAME hydrolysis, kallikrein (method of Muramatsu et al.); assay type: biochemical; conditions: read-out: ID50, kallikrein
Description: as §1

thrombin = thrombin (Bos taurus, UniProt P00735); experiment: Enzyme inhibition, TAME hydrolysis, thrombin (method of Muramatsu et al.); assay type: biochemical
Description: as §1

Clr = biological target: T2, Clr (Homo sapiens, UniProt P00736); experiment: Anti-Cl esterase activity, Clr (AAME hydrolysis, method of Okamura et al.); assay type: biochemical; conditions: read-out: Anti-C1 activity, Clr (ID50)
T2 sequence (P00736 464-705 limits assumed): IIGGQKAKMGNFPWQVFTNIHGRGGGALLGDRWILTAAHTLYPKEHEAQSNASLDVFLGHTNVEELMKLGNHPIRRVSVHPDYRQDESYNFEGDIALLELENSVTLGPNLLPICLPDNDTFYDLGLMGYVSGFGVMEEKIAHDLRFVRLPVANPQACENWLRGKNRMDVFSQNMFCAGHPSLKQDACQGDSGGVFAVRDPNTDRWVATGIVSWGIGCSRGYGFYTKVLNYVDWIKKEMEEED
T2 sequence (P00736 18-463 partner limits assumed): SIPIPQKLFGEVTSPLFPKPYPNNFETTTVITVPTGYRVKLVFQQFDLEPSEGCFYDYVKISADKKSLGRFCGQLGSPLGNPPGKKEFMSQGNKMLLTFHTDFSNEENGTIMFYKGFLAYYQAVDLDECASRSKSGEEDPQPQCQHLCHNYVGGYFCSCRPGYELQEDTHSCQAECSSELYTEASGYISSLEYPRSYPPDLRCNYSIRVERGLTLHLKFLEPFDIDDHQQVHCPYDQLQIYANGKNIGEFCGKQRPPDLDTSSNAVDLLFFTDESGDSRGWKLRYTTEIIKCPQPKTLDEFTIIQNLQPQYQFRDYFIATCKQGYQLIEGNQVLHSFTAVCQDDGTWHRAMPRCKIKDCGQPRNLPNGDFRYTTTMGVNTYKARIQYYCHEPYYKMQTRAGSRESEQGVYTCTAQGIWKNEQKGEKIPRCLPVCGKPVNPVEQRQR
Description: (§2) The anti-Cl esterase (Clr, Cls) activity was determined according to the method of Okamura et al. [K. Okamura, M. Muramatsu and S. Fujii, Biochem. Biophys. Acta, 295, 252-257 (1973)]. The inhibition of complement mediated hemolysis (percent) was determined according to the method of Baker et al. [B. R. Baker and E. H. Erickson, J. Med. Chem., 12, 408-414 (1969)]. The figures in Table 2 have the following meanings:
Clr: Molar concentration of the test compound which inhibits 50% of the ability of Clr to hydrolyse AAME (acetylarginin methyl ester) (ID50).

Cls = biological target: T3, Cls (Homo sapiens, UniProt P09871); experiment: Anti-Cl esterase activity, Cls (ATEE hydrolysis, method of Okamura et al.); assay type: biochemical; conditions: read-out: Anti-C1 activity, Cls (ID50)
T3 sequence (P09871 438-688 limits assumed): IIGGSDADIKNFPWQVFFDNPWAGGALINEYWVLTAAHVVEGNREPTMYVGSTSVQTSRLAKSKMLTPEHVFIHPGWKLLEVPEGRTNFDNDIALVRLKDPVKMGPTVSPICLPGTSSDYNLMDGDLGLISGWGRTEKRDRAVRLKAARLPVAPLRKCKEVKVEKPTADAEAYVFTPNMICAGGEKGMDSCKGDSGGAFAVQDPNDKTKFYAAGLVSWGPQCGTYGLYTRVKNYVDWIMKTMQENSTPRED
T3 sequence (P09871 16-437 partner limits assumed): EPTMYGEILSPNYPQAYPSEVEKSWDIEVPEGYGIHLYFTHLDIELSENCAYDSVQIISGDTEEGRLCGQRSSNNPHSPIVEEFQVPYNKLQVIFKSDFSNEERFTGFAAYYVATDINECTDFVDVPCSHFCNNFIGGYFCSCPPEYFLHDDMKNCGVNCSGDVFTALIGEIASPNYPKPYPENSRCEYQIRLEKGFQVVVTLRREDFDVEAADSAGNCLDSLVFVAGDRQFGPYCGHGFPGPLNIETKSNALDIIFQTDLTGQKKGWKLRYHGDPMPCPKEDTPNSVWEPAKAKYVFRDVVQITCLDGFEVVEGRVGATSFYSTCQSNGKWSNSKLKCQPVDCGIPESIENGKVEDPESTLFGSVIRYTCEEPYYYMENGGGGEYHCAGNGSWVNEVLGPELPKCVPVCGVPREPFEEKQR
Description: as §2
Cls: Molar concentration of the test compound which inhibits 50% of the ability of Cls to hydrolyse ATEE (acetyltyrosin ethyl ester) (ID50).

[1] = system: complement mediated hemolysis; experiment: Inhibition of complement mediated hemolysis (method of Baker et al.); assay type: cell-based
[2] = Toxicity, lethal dose (LD50); conditions: mouse, in vivo

Row | inhibition at 10 µM (thrombin; 1×10^-5 M, hydrolysis of TAME, read-out: percentage inhibition, thrombin (figure in parentheses)) | SMILES | IC50 (trypsin) | IC50 (plasmin) | IC50 (kallikrein) | IC50 (thrombin) | IC50 (Clr) | IC50 (Cls) | Inhibition of complement mediated hemolysis (%) ([1]; concentration 1 × 10^-4) | Inhibition of complement mediated hemolysis (%) ([1]; concentration 1 × 10^-5) | Inhibition of complement mediated hemolysis (%) ([1]; concentration 1 × 10^-6) | Inhibition of complement mediated hemolysis (%) ([1]; concentration 1 × 10^-7) | LD50 ([2]; ip, read-out: LD50 Mouse IP) | LD50 ([2]; po, read-out: LD50 Mouse PO)
1 | – | CC(=O)Oc1ccc2cc(C(=N)N)ccc2c1 [Compound No. 1, 6-amidino-2-naphthyl acetate] | 80 µM | 200 µM | 500 µM | 400 µM | 10 µM | 20 µM | 86% | 15% | 0% | 0% | 200 mg/kg | 2500 mg/kg
2 | – | CCCC(=O)Oc1ccc2cc(C(=N)N)ccc2c1 [Compound No. 2, 6-amidino-2-naphthyl n-butyrate] | 20 µM | 30 µM | 700 µM | 20 µM | 9 µM | 20 µM | 96% | 40% | 1% | 0% | 200 mg/kg | 2500 mg/kg
3 | – | CC(C)CC(=O)Oc1ccc2cc(C(=N)N)ccc2c1 [Compound No. 3, 6-amidino-2-naphthyl isovalerate] | 30 µM | 30 µM | 500 µM | 80 µM | 2 µM | 2 µM | 95% | 37% | 0% | 0% | – | –
4 | 26% | CCCCCCCCCC(=O)Oc1ccc2cc(C(=N)N)ccc2c1 [Compound No. 5, 6-amidino-2-naphthyl caprate] | 6 µM | 10 µM | 100 µM | – | – | – | – | – | – | – | – | –
5 | – | CCCCCCCCCCCC(=O)Oc1ccc2cc(C(=N)N)ccc2c1 [Compound No. 6, 6-amidino-2-naphthyl laurate] | – | – | – | – | – | – | 13% | 13% | 27% | 15% | – | –
6 | – | C/C=C/C=C/C(=O)Oc1ccc2cc(C(=N)N)ccc2c1 [Compound No. 9, 6-amidino-2-naphthyl sorbate] | – | – | – | – | – | – | 94% | 89% | 37% | 14% | – | –
7 | – | N=C(N)c1ccc2cc(OC(=O)C3CC3)ccc2c1 [Compound No. 10, 6-amidino-2-naphthyl cyclopropanecarboxylate] | 2 µM | 4 µM | 100 µM | 3 µM | 0.2 µM | 0.3 µM | 100% | 92% | 18% | 0% | – | –
